We go through 20 compounds from patent US9567338B2, “Pyrazolo[3,4-d]pyrimidine compounds, their preparation and use as sigma ligands” (LABORATORIOS DEL DR. ESTEVE S.A., priority 2011, dated 2017).

The test concerns the target σ1-receptor (Cavia porcellus (Guinea pig), UniProt Q60492). As to the kind of experiment: σ1-receptor binding assay, [3H]-(+)-pentazocine displacement in brain membranes. The following applies: radioligand [3H]-(+)-pentazocine 5.0 nM; for % Displacement (10^−6 M): compound at 10^−6 M. The procedure:
Guinea pig brains were homogenized in 10 vols. (w/v) of Tris-HCl 50 mM 0.32 M sucrose, pH 7.4, with a Kinematica Polytron PT 3000 at 15000 r.p.m. for 30 s. The homogenate was centrifuged at 1000 g for 10 min at 4° C. and the supernatants collected and centrifuged again at 48000 g for 15 min at 4° C. The pellet was resuspended in 10 volumes of Tris-HCl buffer (50 mM, pH 7.4), incubated at 37° C. for 30 min, and centrifuged at 48000 g for 20 min at 4° C. Following this, the pellet was resuspended in fresh Tris-HCl buffer (50 mM, pH 7.4) and stored on ice until use.
The radioligand used was [^3H]-(+)-pentazocine at 5.0 nM and the final volume was 200 μl. The incubation was initiated with the addition of 100 μA of membrane at a final tissue concentration of approximately 5 mg tissue net weight/mL and the incubation time was 150 m. at 37° C. After incubation, the membranes were collected onto pretreated glass fiber filterplate (MultiScreen-FC, Millipore), with polyethylenimine 0.1%. The filters were washed two times with 200 μA of washing buffer (50 mM Tris CI, pH=7.4) and then 25 μl of Ecoscint H liquid scintillation cocktail were added. […] Nonspecific binding was determined with 1 μM haloperidol.

The Ki is a dissociation constant, usually derived from enzyme kinetics or from competition with a known ligand. A lower Ki goes with a stronger hold on the target.

Chain of σ1-receptor (Q60492 whole entry): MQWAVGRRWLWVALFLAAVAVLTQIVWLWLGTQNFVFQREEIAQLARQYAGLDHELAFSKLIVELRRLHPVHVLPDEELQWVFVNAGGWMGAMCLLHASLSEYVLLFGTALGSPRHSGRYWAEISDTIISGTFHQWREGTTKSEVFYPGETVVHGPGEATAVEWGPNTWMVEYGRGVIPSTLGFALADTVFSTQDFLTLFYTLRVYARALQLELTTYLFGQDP

For the compound `Cl.O=C(Nc1ncnc2c1cnn2CCN1CCCCC1)C1CCCCC1` [Example 6, N-(1-(2-(Piperidin-1-yl)ethyl)-1H-pyrazolo[3,4-d]pyrimidin-4-yl)cyclohexanecarboxamide hydrochloride], the “% Displacement (10^−6 M)” value is recorded as 78.6% and the inhibition constant Ki stood at 73.1 nM.
Turning to `CC(C)(C)c1cc(C(=O)Nc2ncnc3c2cnn3CCN2CCCCC2)cc(C(C)(C)C)c1.Cl` [Example 9, 3,5-di-tert-Butyl-N-(1-(2-(piperidin-1-yl)ethyl)-1H-pyrazolo[3,4-d]pyrimidin-4-yl)benzamide hydrochloride], the “% Displacement (10^−6 M)” value worked out at 49.50% and the inhibitory constant (Ki) was determined as 700 nM.
On to `CC(C)N(CCn1ncc2c(NC(=O)C3CCCCC3)ncnc21)C(C)C.O=C(O)/C=C\C(=O)O` [Example 16, N-(1-(2-(Diisopropylamino)ethyl)-1H-pyrazolo[3,4-d]pyrimidin-4-yl)cyclohexanecarboxamide maleate], for which the “% Displacement (10^−6 M)” value was determined as 68.2% and the affinity corresponds to a Ki of 244 nM.
In the case of `CC(C)N(CCn1ncc2c(NC(=O)C34CC5CC(CC(C5)C3)C4)ncnc21)C(C)C.O=C(O)/C=C\C(=O)O` [Example 18, N-(1-(2-(Diisopropylamino)ethyl)-1H-pyrazolo[3,4-d]pyrimidin-4-yl)-1-adamantylcarboxamide maleate], the “% Displacement (10^−6 M)” value turned out to be 90.2% and the affinity corresponds to a Ki of 56.7 nM.
In the case of `CC(C)N(CCn1ncc2c(NC(=O)C34C5CC6CC3CC64C5)ncnc21)C(C)C.Cl` [Example 21, N-(1-(2-(Diisopropylamino)ethyl)-1H-pyrazolo[3,4-d]pyrimidin-4-yl)-1-noradamantylcarboxamide hydrochloride], the “% Displacement (10^−6 M)” value was 90.8% and the inhibition constant Ki turned out to be 55 nM.
Take `Cl.O=C(Nc1ncnc2c1cnn2CCN1CCCCCC1)C12C3CC4CC1CC42C3` [Example 22, N-(1-(2-(Azepan-1-yl)ethyl)-1H-pyrazolo[3,4-d]pyrimidin-4-yl) 1-noradamantylcarboxamide hydrochloride]: the “% Displacement (10^−6 M)” value stood at 97.2% and the Ki stood at 15 nM.
On to `CC(C)N(CCn1ncc2c(NC(=O)C3CCCC3)ncnc21)C(C)C.O=C(O)/C=C\C(=O)O` [Example 28, N-(1-(2-(Diisopropylamino)ethyl)-1H-pyrazolo[3,4-d]pyrimidin-4-yl)cyclopentanecarboxamide maleate], for which the “% Displacement (10^−6 M)” value is recorded as 54.0% and the Ki came out at 631 nM.
Take `CC(C)N1CCN(CCn2ncc3c(NC(=O)C45CC6CC(CC(C6)C4)C5)ncnc32)CC1.O=C(O)/C=C\C(=O)O` [Example 31, N-(1-(2-(4-isopropylpiperazin-1-yl)ethyl)-1H-pyrazolo[3,4-d]pyrimidin-4-yl) 1-adamantylcarboxamide maleate]: the “% Displacement (10^−6 M)” value is 76.8% and the inhibition constant (Ki) was 573 nM.
As to `CC(C)N1CCN(CCn2ncc3c(NC(=O)C4CCCC4)ncnc32)CC1.O=C(O)/C=C\C(=O)O` [Example 32, N-(1-(2-(4-isopropylpiperazin-1-yl)ethyl)-1H-pyrazolo[3,4-d]pyrimidin-4-yl)cyclopentanecarboxamide maleate], the “% Displacement (10^−6 M)” value was determined as 63.3%. In addition, the Ki (maleate) is 683 nM.
`CCCNC(=O)Nc1ncnc2c1cnn2CCN1CCCOCC1` [Example 44, 1-(1-(2-(1,4-oxazepan-4-yl)ethyl)-1H-pyrazolo[3,4-d]pyrimidin-4-yl)-3-propylurea] gave an inhibitory constant (Ki) of 252 nM.
For `CC(C)N(CCn1ncc2c(NC(=O)NC(C)(C)C)ncnc21)C(C)C.Cl` [Example 61, 1-tert-Butyl-3-(1-(2-(diisopropylamino)ethyl)-1H-pyrazolo[3,4-d]pyrimidin-4-yl)urea hydrochloride], the “% Displacement (10^−6 M)” value turned out to be 25.9% and the affinity, expressed as Ki, was 805 nM.
`O=C(Nc1ccc(Cl)cc1Cl)Nc1ncnc2c1cnn2CCN1CCCCCC1.O=C(O)CC(O)(CC(=O)O)C(=O)O` [Example 64, 1-(1-(2-(azepan-1-yl)ethyl)-1H-pyrazolo[3,4-d]pyrimidin-4-yl)-3-(2,4-dichlorophenyl)urea citrate]: the “% Displacement (10^−6 M)” value was found to be 91.4% and affinity was put at a Ki of 108 nM.
As to `CC(C)(C)CC(C)(C)NC(=O)Nc1ncnc2c1cnn2CCN1CCCCCC1.O=C(O)/C=C\C(=O)O` [Example 65, 1-(1-(2-(azepan-1-yl)ethyl)-1H-pyrazolo[3,4-d]pyrimidin-4-yl)-3-(2,4,4-trimethylpentan-2-yl)urea maleate], the “% Displacement (10^−6 M)” value is 96.8% and the Ki was 27.9 nM.
The compound `CCCNC(=O)Nc1ncnc2c1cnn2CCCN1CCCCCC1` [Example 73, 1-(1-(3-(azepan-1-yl)propyl)-1H-pyrazolo[3,4-d]pyrimidin-4-yl)-3-propylurea] had an inhibition constant (Ki) of 102 nM.
Regarding `CCCNC(=O)Nc1ncnc2c1cnn2CCN1CCC(C(C)(C)C)CC1` [Example 74, 1-(1-(2-(4-tert-butylpiperidin-1-yl)ethyl)-1H-pyrazolo[3,4-d]pyrimidin-4-yl)-3-propylurea], the Ki was determined as 212 nM.
As for `CNC(=S)Nc1ncnc2c1cnn2CCN1CCCCCC1.O=C(O)/C=C\C(=O)O` [Example 76, 1-(1-(2-(azepan-1-yl)ethyl)-1H-pyrazolo[3,4-d]pyrimidin-4-yl)-3-methylthiourea maleate], the “% Displacement (10^−6 M)” value amounted to 96.8% and the affinity corresponds to a Ki of 14.9 nM.
`CN1CCN(CCCn2ncc3c(NC(=O)C(C)(C)C)ncnc32)CC1` [Example 86, N-(1-(3-(4-methylpiperazin-1-yl)propyl)-1H-pyrazolo[3,4-d]pyrimidin-4-yl)pivalamide] displayed a Ki of 329 nM.
`CCCNC(=O)Nc1ncnc2c1cnn2CCCCN1CCC(C(C)(C)C)CC1` [Example 93, 1-(1-(4-(4-tert-butylpiperidin-1-yl)butyl)-1H-pyrazolo[3,4-d]pyrimidin-4-yl)-3-propylurea] displayed a Ki of 280 nM.
On the same count and under the same terms, the figure for `CC(=O)N(C)c1ncnc2c1cnn2CCN1CCCCCC1` [Example 101, N-(1-(2-(azepan-1-yl)ethyl)-1H-pyrazolo[3,4-d]pyrimidin-4-yl)-N-methylacetamide] is 221 nM; for `Cc1ccc(C)n1-c1ncnc2c1cnn2CCN1CCCCC1` [Example 105, 4-(2,5-dimethyl-1H-pyrrol-1-yl)-1-(2-(piperidin-1-yl)ethyl)-1H-pyrazolo[3,4-d]pyrimidine] it is 740 nM.
